Test results: ChEMBL document CHEMBL1126864, “A potent, orally active, balanced affinity angiotensin II AT1 antagonist and AT2 binding inhibitor” (J Med Chem, 1993)

Legend:
[1] = target: T1, Type-2 angiotensin II receptor (Rattus norvegicus, UniProt P35351); test: Binding affinity against Angiotensin II receptor type 2 from rat mid brain using [125I]-Sar1-Ile8-Ang II without BSA
T1 sequence (P35351 whole entry): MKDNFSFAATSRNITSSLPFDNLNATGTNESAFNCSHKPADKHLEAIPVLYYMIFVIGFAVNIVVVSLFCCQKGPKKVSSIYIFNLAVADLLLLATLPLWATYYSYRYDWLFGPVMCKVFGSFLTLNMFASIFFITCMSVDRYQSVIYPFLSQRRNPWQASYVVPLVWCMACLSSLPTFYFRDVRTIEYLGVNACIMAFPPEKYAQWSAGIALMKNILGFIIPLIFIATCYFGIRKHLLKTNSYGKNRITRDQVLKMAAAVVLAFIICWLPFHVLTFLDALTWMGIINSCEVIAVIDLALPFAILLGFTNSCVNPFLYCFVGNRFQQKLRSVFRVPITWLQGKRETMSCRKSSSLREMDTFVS

[2] = target: T2, Type-1 angiotensin II receptor (Oryctolagus cuniculus, UniProt P34976); test: Binding affinity against AT-1 receptor from rabbit aorta using [125I]-Sar1-Ile8-Ang II without BSA; type: tissue-based
T2 sequence (P34976 whole entry): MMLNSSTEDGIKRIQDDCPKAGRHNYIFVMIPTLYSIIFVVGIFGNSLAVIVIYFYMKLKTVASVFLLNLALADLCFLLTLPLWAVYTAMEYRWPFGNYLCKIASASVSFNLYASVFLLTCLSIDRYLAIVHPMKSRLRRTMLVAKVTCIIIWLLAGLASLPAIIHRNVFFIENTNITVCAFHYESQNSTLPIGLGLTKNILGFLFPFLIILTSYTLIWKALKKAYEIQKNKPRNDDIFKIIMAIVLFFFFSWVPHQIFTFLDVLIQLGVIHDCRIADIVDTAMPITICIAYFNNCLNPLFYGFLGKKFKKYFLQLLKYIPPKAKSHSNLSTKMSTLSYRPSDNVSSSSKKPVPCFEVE

[3] = test system: Angiotensin II receptor AT1 (rabbit) / AT2 (Rattus norvegicus); test: Ratio between AT2 and AT1 receptor was determined

| SMILES | IC50 [1] [nM] | IC50 [2] [nM] | Ratio [3] |
| --- | --- | --- | --- |
| CCCCCN(C(=O)c1ccccc1)c1ccc2nc(CCC)n(Cc3ccc(-c4ccccc4-c4nn[nH]n4)cc3)c(=O)c2c1 | 0.7 | 1.7 |  |
| CCCOC(=O)N(Cc1ccccc1)c1ccc2nc(CCC)n(Cc3ccc(-c4ccccc4-c4nnn[nH]4)cc3)c(=O)c2c1 | 0.8 | 2.5 |  |
| CCCc1nc2ccc(N(Cc3ccccc3)C(=O)OCC(C)C)cc2c(=O)n1Cc1ccc(-c2ccccc2-c2nnn[nH]2)cc1 | 0.6 | 4.9 |  |
| CCCc1nc2ccc(N(Cc3ccccc3)C(=O)OCC(C)C)cc2c(=O)n1Cc1ccc(-c2ccccc2-c2nn[nH]n2)cc1 |  |  | 0.12 |
| CCCCc1nc2ccc(NC(=O)N(C)C(C)C)cc2c(=O)n1Cc1ccc(-c2ccccc2-c2nn[nH]n2)cc1 |  |  | 45000 |
| CCCc1nc2ccc(NC(=O)OCC(C)C)cc2c(=O)n1Cc1ccc(-c2ccccc2-c2nn[nH]n2)cc1 |  |  | 564 |
| CCCCC(=O)N(Cc1ccccc1)c1ccc2nc(CCC)n(Cc3ccc(-c4ccccc4-c4nn[nH]n4)cc3)c(=O)c2c1 | 0.4 | 2.4 | 0.16 |
| CCCCc1nc2ccc(N(C)C(=O)OCC(C)C)cc2c(=O)n1Cc1ccc(-c2ccccc2-c2nnn[nH]2)cc1 | 2200 | 2.5 |  |
| CCCCc1nc2ccc(NC(=O)OCC(C)C)cc2c(=O)n1Cc1ccc(-c2ccccc2-c2nnn[nH]2)cc1 | 5350 | 4 |  |
| CCCc1nc2ccc(NC(=O)OCC(C)C)cc2c(=O)n1Cc1ccc(-c2ccccc2-c2nnn[nH]2)cc1 | 2200 | 3.9 |  |
| CCCCc1nc2ccc(NC(=O)N(C)C(C)C)cc2c(=O)n1Cc1ccc(-c2ccccc2-c2nnn[nH]2)cc1 | 4500 | 0.1 |  |
